Here are results for 1 molecule from ChEMBL document CHEMBL1145522, “Recognition of trimethyllysine by a chromodomain is not driven by the hydrophobic effect” (Proc Natl Acad Sci U S A, 2007).

This assay in a line: Binding affinity to Drosophila HP1 chromodomain by fluorescence polarization assay.

SMILES strings stand for the structures. pKd: −log10 of the molar value. Bounds are passed on as bounds.

As to `C[C@H](N)C(=O)N[C@@H](CCCNC(=N)N)C(=O)N[C@H](C(=O)N[C@@H](CCCCN)C(=O)N[C@@H](CCC(N)=O)C(=O)N[C@H](C(=O)N[C@@H](C)C(=O)N[C@@H](CCCNC(=N)N)C(=O)N[C@@H](CCCCN)C(=O)N[C@@H](CO)C(=O)N[C@H](C(=O)NCC(=O)NCC(=O)N[C@@H](CCCCN)C(=O)N[C@@H](C)C(=O)N[C@@H](Cc1ccc(O)cc1)C(=O)O)[C@@H](C)O)[C@@H](C)O)[C@@H](C)O`, the pKd (as a rule, the Kd on a negative log10 scale, so that one unit is a factor of ten) was less than 3.00.
